Laboratory results published in US11999727B2 (Tango Therapeutics, Inc., priority 2020, dated 2024).

Key:
[1] = target: T1, PRMT5 (Homo sapiens, UniProt O14744); test: PRMT5 biochemical IC50 assay with SAM as cofactor; conditions: PRMT5, SAM as cofactor; read-out: SAM IC50
T1 construct: purchased Viva (custom protein)

[2] = target: T1, PRMT5; test: PRMT5 biochemical IC50 assay with no cofactor; conditions: PRMT5, no cofactor; read-out: No Cofactor/rel IC50
Text: Table 1 indicates IC50 values (μM) against PRMT5 for exemplary compounds in the presence of SAM as cofactor, with no cofactor, and with MTA as cofactor, respectively (columns 4-6). […] Ki values can be calculated from the IC50 values as described in the Examples section. As detailed in the Examples section, for the assay performed in the presence of SAM, IC50=Ki×1.5 (Ki=IC50/1.5).

[3] = target: T1, PRMT5; test: PRMT5 biochemical IC50 assay with MTA as cofactor; conditions: PRMT5, MTA as cofactor; read-out: MTA IC50
[4] = tested on: HAP1 MTAP-intact cell line; test: SDMA in-cell western assay, HAP1 MTAP-intact; format: cell-based; conditions: Homo sapiens, HAP1, SDMA in-cell western, HAP1 MTAP-intact; read-out: MTAP HAP1 intact IC50
In short: (§1)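 MTAP-null vs endogenous-MTAP HAP1 isogenic cells; in-cell western SDMA readout; IC50 per line.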

[5] = tested on: HAP1 MTAP-deleted cell line; test: SDMA in-cell western assay, HAP1 MTAP-deleted; format: cell-based; conditions: for IC50: Homo sapiens, HAP1, SDMA in-cell western, HAP1 MTAP-deleted, read-out: HAP 1 MTAP deleted IC50; for MTAP intact/deleted ratio: IC50 ratio HAP1 MTAP-intact / HAP1 MTAP-deleted, SDMA in-cell western
In short: as §1

[6] = tested on: HAP1 MTAP-deleted cell line; test: Viability assay, MTAP-deleted cell line; format: cell-based; conditions: Homo sapiens, HAP1, viability IC50, MTAP-deleted cell line; read-out: HAP1 MTAP deleted viability
Text: Table 1 additionally indicates IC50 values in a viability assay for the MTAP-deleted cell line (column 10), indicating the effect of treatment with compound on cell survival.

T1 sequence (O14744 whole entry): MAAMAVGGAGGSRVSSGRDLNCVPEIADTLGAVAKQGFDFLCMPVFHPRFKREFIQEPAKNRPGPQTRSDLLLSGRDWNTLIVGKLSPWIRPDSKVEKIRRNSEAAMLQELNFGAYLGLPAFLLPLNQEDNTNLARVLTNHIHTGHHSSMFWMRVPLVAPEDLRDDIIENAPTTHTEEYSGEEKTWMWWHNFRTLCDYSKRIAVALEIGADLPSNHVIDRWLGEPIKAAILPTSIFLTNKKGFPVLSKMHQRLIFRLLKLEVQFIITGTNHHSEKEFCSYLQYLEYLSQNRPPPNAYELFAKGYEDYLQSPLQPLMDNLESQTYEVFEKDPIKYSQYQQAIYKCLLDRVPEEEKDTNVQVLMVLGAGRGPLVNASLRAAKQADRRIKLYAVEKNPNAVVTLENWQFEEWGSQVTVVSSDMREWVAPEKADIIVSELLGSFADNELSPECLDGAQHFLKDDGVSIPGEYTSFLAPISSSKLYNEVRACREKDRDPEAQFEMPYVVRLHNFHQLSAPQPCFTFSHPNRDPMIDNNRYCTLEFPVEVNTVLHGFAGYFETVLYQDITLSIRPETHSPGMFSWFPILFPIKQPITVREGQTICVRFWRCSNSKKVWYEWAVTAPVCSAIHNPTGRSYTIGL
T1 sequence (Q9BQA1 whole entry partner): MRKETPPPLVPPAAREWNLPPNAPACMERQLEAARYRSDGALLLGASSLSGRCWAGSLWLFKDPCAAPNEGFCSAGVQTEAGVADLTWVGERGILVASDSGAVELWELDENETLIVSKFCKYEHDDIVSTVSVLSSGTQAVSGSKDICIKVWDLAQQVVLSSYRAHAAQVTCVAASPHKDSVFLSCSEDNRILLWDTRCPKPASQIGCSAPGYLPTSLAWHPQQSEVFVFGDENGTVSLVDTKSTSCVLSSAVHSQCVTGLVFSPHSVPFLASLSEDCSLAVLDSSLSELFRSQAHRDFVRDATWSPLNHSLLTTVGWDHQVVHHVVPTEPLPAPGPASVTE

SMILES | IC50 [1] [nM] | IC50 [2] [nM] | IC50 [3] [nM] | IC50 [4] [nM] | IC50 [5] [nM] | MTAP intact/deleted ratio [5] | IC50 [6] [nM]
Cc1cc(NC(=O)C(=O)N2C[C@H](C)CC[C@H]2C2CCN(C)CC2)cnc1N (racemic) [Compound 614, N-(6-amino-5-methyl-3-pyridyl)-2-[(2R,5S)-5-methyl-2-(1-methyl-4-piperidyl)-1-piperidyl]-2-oxo-acetamide] | > 500 | > 500 | > 500 | > 1000 | > 1000 | C (an IC50 ratio of less than 3 fold) | > 10000
Cc1ncc(NC(=O)C(=O)N2C[C@H](C)CC[C@H]2c2ccc(F)cc2)cc1Cl (racemic) [Compound 622, N-(5-chloro-6-methyl-3-pyridyl)-2-[(2S,5R)-2-(4-fluorophenyl)-5-methyl-1-piperidyl]-2-oxo-acetamide] | 50 to 500 | 50 to 500 | 50 to 500 | > 1000 | > 1000 | B (an IC50 ratio greater than or equal to 3 fold but lower than 10 fold) | > 10000
C[C@@H]1CC[C@@H](c2ccc3[nH]c(=O)[nH]c3c2)N(C(=O)C(=O)Nc2cncc(C(N)=O)c2)C1 (racemic) [Compound 623, rac-5-[[2-[(2R,5S)-5-methyl-2-(2-oxo-1,3-dihydrobenzimidazol-5-yl)-1-piperidyl]-2-oxo-acetyl]amino]pyridine-3-carboxamide] | 50 to 500 | 50 to 500 | 50 to 500 | > 1000 | 100 to 1000 | A (an IC50 ratio greater than or equal to 10 fold) | > 10000
Cc1ncc(NC(=O)C(=O)N2C[C@H](C)CC[C@H]2c2ccc3c(c2)CCC(=O)N3)cc1Cl (racemic) [Compound 639, N-(5-Chloro-6-methyl-3-pyridyl)-2-[(2R,5S)-5-methyl-2-(2-oxo-3,4-dihydro-1H-quinolin-6-yl)-1-piperidyl]-2-oxo-acetamide] | 50 to 500 | 50 to 500 | 50 to 500 | > 1000 | < 100 | A (an IC50 ratio greater than or equal to 10 fold) | 1000 to 10000
Cc1cc(NC(=O)C(=O)N2CC[C@@H](C)C[C@H]2c2ccccc2)cnc1N (racemic) [Compound 640, N-(6-amino-5-methyl-3-pyridyl)-2-[(2R,4S)-4-methyl-2-phenyl-1-piperidyl]-2-oxo-acetamide] | 50 to 500 | 50 to 500 | 50 to 500 | > 1000 | 100 to 1000 | A (an IC50 ratio greater than or equal to 10 fold) | 1000 to 10000
Cc1cc(NC(=O)C(=O)N2C[C@H](C)CC[C@H]2c2ccc3c(c2)CCC(=O)N3)cnc1C(F)F (racemic) [Compound 641, N-[6-(Difluoromethyl)-5-methyl-3-pyridyl]-2-[(2S,5R)-5-methyl-2-(2-oxo-3,4-dihydro-1H-quinolin-6-yl)-1-piperidyl]-2-oxo-acetamide] | 50 to 500 | 50 to 500 | 50 to 500 | > 1000 | 100 to 1000 | – | 1000 to 10000
CCc1cc([C@@H]2CC[C@@H](C)CN2C(=O)C(=O)Nc2cncc(C(N)=O)c2)ccc1O (racemic) [Compound 642, 5-[[2-[(2R,5S)-2-(3-Ethyl-4-hydroxy-phenyl)-5-methyl-1-piperidyl]-2-oxo-acetyl]amino]pyridine-3-carboxamide] | 50 to 500 | 50 to 500 | 50 to 500 | > 1000 | < 100 | A (an IC50 ratio greater than or equal to 10 fold) | < 1000
Cc1cc(NC(=O)C(=O)N2C[C@H](C)CC[C@H]2c2ccc(S(C)(=O)=O)cc2)cnc1N (racemic) [Compound 643, N-(6-amino-5-methyl-3-pyridyl)-2-[(2R,5S)-5-methyl-2-(4-methylsulfonylphenyl)-1-piperidyl]-2-oxo-acetamide] | 50 to 500 | 50 to 500 | 50 to 500 | > 1000 | 100 to 1000 | C (an IC50 ratio of less than 3 fold) | 1000 to 10000
Cc1cc(NC(=O)C(=O)N2C[C@H](C)CC[C@H]2c2ccc(C(N)=O)s2)cnc1N (racemic) [Compound 644, 5-[(2S,5R)-1-[2-[(6-amino-5-methyl-3-pyridyl)amino]-2-oxo-acetyl]-5-methyl-2-piperidyl]thiophene-2-carboxamide] | 50 to 500 | 50 to 500 | 50 to 500 | 100 to 1000 | < 100 | A (an IC50 ratio greater than or equal to 10 fold) | < 1000
Cc1cc(NC(=O)C(=O)N2C[C@H](C)CC[C@H]2c2cccc(S(C)(=O)=O)c2)cnc1C (racemic) [Compound 648, N-(5,6-dimethyl-3-pyridyl)-2-[(2R,5S)-5-methyl-2-(3-methylsulfonylphenyl)-1-piperidyl]-2-oxo-acetamide] | 50 to 500 | 50 to 500 | 50 to 500 | > 1000 | > 1000 | B (an IC50 ratio greater than or equal to 3 fold but lower than 10 fold) | > 10000
Cc1cc(NC(=O)C(=O)N2C[C@H](C)CC[C@H]2c2ccc(S(C)(=O)=O)cc2)cnc1C (racemic) [Compound 649, N-(5,6-dimethyl-3-pyridyl)-2-[(2R,5S)-5-methyl-2-(4-methylsulfonylphenyl)-1-piperidyl]-2-oxo-acetamide] | > 500 | 50 to 500 | 50 to 500 | > 1000 | > 1000 | B (an IC50 ratio greater than or equal to 3 fold but lower than 10 fold) | > 10000
C[C@@H]1CC[C@@H](c2ccc(S(N)(=O)=O)cc2)N(C(=O)C(=O)Nc2cncc(C(N)=O)c2)C1 (racemic) [Compound 651, rac 5-[[2-[(2S,5R)-5-methyl-2-(4-sulfamoylphenyl)-1-piperidyl]-2-oxo-acetyl]amino]pyridine-3-carboxamide] | 50 to 500 | 50 to 500 | 50 to 500 | > 1000 | > 1000 | C (an IC50 ratio of less than 3 fold) | > 10000
CNS(=O)(=O)c1ccc([C@@H]2CC[C@@H](C)CN2C(=O)C(=O)Nc2cncc(C(N)=O)c2)cc1 (racemic) [Compound 652, rac 5-[[2-[(2S,5R)-5-methyl-2-[4-(methylsulfamoyl)phenyl]-1-piperidyl]-2-oxo-acetyl]amino]pyridine-3-carboxamide] | 50 to 500 | 50 to 500 | 50 to 500 | > 1000 | > 1000 | C (an IC50 ratio of less than 3 fold) | > 10000
Cc1cc(NC(=O)C(=O)N2C[C@H](C)CC[C@H]2c2ccc(N)cn2)cnc1N (racemic) [Compound 658, N-(6-amino-5-methyl-3-pyridyl)-2-[2-(5-amino-2-pyridyl)-5-methyl-1-piperidyl]-2-oxo-acetamide] | 50 to 500 | 50 to 500 | 50 to 500 | > 1000 | 100 to 1000 | A (an IC50 ratio greater than or equal to 10 fold) | > 10000
